# Measured values as given in patent US9718790B2, “Triazine derivative and pharmaceutical composition having an analgesic activity comprising the same” (SHIONOGI & CO., LTD., priority 2010, dated 2017).
# Target: human P2X3 receptor (Homo sapiens (Human), UniProt P56373)
# Assay: Evaluation of human P2X3 receptor inhibitory activity (Fluo-3 calcium fluorescence, FDSS 3000, ATP stimulation);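 note: stimulus was 50 nM ATP with fluorescence followed for 3 min, and the response per well was peak post-ATP fluorescence divided by the reading at measurement start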
# Format: cell-based
# Details: C6BU-1 cells stably expressing human P2X3 receptor
# Sequence of human P2X3 receptor (P56373 whole entry): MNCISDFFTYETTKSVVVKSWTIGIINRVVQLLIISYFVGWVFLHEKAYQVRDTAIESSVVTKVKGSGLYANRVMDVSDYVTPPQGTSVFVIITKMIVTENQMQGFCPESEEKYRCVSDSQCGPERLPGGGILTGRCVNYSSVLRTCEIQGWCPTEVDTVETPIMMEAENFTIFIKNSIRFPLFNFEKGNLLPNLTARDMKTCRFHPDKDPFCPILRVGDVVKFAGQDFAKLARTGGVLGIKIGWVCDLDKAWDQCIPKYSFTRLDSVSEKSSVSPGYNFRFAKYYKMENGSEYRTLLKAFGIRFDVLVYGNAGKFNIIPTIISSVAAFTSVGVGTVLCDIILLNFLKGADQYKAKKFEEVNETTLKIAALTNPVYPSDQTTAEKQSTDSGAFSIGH
row,Compound,IC50
1,CCn1c(=O)[nH]/c(=N\c2ccc(Oc3cc(C(=O)O)on3)cc2)n(Cc2ccc(Cl)cc2)c1=O [Compound I-1963],13 nM
2,Cc1cc(/N=c2\[nH]c(=O)n(Cc3cc(C(=O)O)no3)c(=O)n2Cc2ccc(Cl)cc2)ccc1OC(C)C [Compound I-0802],21 nM
3,COC(=O)Cn1c(=O)[nH]/c(=N\c2ccc(OCC3CC3)cc2)n(Cc2ccc(Cl)cc2)c1=O [Compound I-1930],29 nM
4,CCCn1c(=O)[nH]/c(=N\c2ccc(Oc3ccc(C(N)=O)nc3)cc2)n(Cc2ccc(Cl)cc2)c1=O [Compound I-2203],1 nM
5,Cc1ccc(Cn2c(=O)n(CCCO)c(=O)[nH]/c2=N\c2ccc(O[C@H](C)C(F)(F)F)cc2)cc1 [Compound I-1953],16 nM
6,CCCn1c(=O)[nH]/c(=N\c2ccc(Oc3ccc(C(=O)O)nc3)cc2)n(Cc2ccc(Cl)cc2)c1=O [Compound I-2161],14 nM
7,COCCOc1ccc(/N=c2\[nH]c(=O)n(C[C@H](C)C(=O)OC)c(=O)n2Cc2ccc(Cl)cc2)cc1Cl [Compound I-0767],88 nM
8,Cc1cc(/N=c2\[nH]c(=O)n(C[C@H](C)C(=O)O)c(=O)n2Cc2ccc(F)cc2)ccc1OC(C)C [Compound I-0629],127 nM
9,Cc1ccc(Cn2c(=O)n(C[C@H](C)C(=O)O)c(=O)[nH]/c2=N\c2ccc3nc(C)sc3c2)cc1 [Compound I-1473],12 nM
10,CCCc1ccc(/N=c2\[nH]c(=O)n(C[C@H](C)C(=O)O)c(=O)n2Cc2ccc(C)cc2)cc1C [Compound I-1212],90 nM
11,Cc1ccc(Cn2c(=O)n([C@H](C)[C@H](C)C(=O)O)c(=O)[nH]/c2=N\c2ccc(OC3CCC3)cc2)cc1 [Compound I-1457],14 nM
12,COC(=O)[C@@H]1CC(n2c(=O)[nH]/c(=N\c3ccc(OC(C)C)c(C)c3)n(Cc3ccc(Cl)cc3)c2=O)CN1C(=O)OC(C)(C)C (some centres unmarked) [Compound I-0699],37 nM
13,CC(C)Oc1ccc(/N=c2\[nH]c(=O)n(CC(=O)NN)c(=O)n2Cc2ccc(Cl)cc2)cc1F [Compound I-0635],19 nM
14,CCCc1ccc(/N=c2\[nH]c(=O)n(CCC(=O)OCC)c(=O)n2Cc2ccc(Cl)cc2)cc1C [Compound I-1250],54 nM
15,CC(C)Cc1ccc(/N=c2\[nH]c(=O)n([C@@H](C)[C@@H](C)C(=O)O)c(=O)n2Cc2ccc(Cl)cc2)cc1Cl [Compound I-1442],8 nM
16,CCc1nc2ccc(/N=c3\[nH]c(=O)n(CCCCC(=O)O)c(=O)n3Cc3ccc(C)cc3)cc2s1 [Compound I-2159],47 nM
17,O=c1[nH]/c(=N\c2ccc3nc(C(F)(F)F)sc3c2)n(Cc2ccc(Cl)cc2)c(=O)n1C[C@H](O)CO [Compound I-2168],57 nM
18,CC(C)Oc1ccc(/N=c2\[nH]c(=O)n(C[C@H]3COC(C)(C)O3)c(=O)n2Cc2ccc(Cl)cc2)cc1Cl [Compound I-0633],4 nM
19,Cc1ccc(Cn2c(=O)n(CCCC(=O)O)c(=O)[nH]/c2=N\c2ccc(Oc3ccc(C)nc3)cc2)cc1 [Compound I-1395],23 nM
20,Cc1ccc(Cn2c(=O)n(C[C@H](C)C(=O)O)c(=O)[nH]/c2=N\c2ccc(NC(=O)C(C)C)c(Cl)c2)cc1 [Compound I-1420],607 nM
21,COCc1ccc(/N=c2\[nH]c(=O)n(C[C@H](C)C(=O)O)c(=O)n2Cc2ccc(Cl)cc2)cc1 [Compound I-0686],605 nM
22,Cc1cc(/N=c2\[nH]c(=O)n(C[C@H](O)CO)c(=O)n2Cc2ccc(Cl)cc2)ccc1OC(C)C [Compound I-0722],14 nM
23,CCn1c(=O)[nH]/c(=N\c2ccc(Oc3cccc(C(=O)OC)c3)cc2)n(Cc2ccc(C)cc2)c1=O [Compound I-2028],13 nM
24,Cc1ccc(Cn2c(=O)n([C@H](C)[C@H](C)C(=O)O)c(=O)[nH]/c2=N\c2ccc3nc(C)sc3c2)cc1 [Compound I-1468],10 nM
25,CCOC(=O)CCn1c(=O)[nH]/c(=N\c2ccc(OC3CCC3)c(C)c2)n(Cc2ccc(Cl)cc2)c1=O [Compound I-1401],22 nM
26,Cc1ccc(Oc2ccc(/N=c3\[nH]c(=O)n(CC(C)(C)C(=O)O)c(=O)n3Cc3ccc(Cl)cc3)cc2)cn1 [Compound I-1358],9 nM
27,COC(=O)[C@@H](C)Cn1c(=O)[nH]/c(=N\c2ccc3c(c2)CCO3)n(Cc2ccc(Cl)cc2)c1=O [Compound I-0770],405 nM
28,CCn1c(=O)[nH]/c(=N\c2ccc(Oc3cncc(C#N)c3)cc2)n(CC2CCC3(CC2)CC3)c1=O [Compound I-2179],3 nM
29,Cc1[nH]c2ccc(/N=c3\[nH]c(=O)n(CCC(=O)O)c(=O)n3Cc3ccc(Cl)cc3)cc2c1C [Compound I-1950],29 nM

# Same assay, conditions: C6BU-1 cells stably expressing human P2X3 receptor, Fluo-3 fluorescence, FDSS 3000
row,Compound,IC50
1,CCn1c(=O)[nH]/c(=N\c2ccc(Oc3cncc(C(=O)O)c3)cc2)n(Cc2ccc(Cl)cc2)c1=O [Compound I-1885],7 nM
2,COC(=O)[C@H](C)[C@H](C)n1c(=O)[nH]/c(=N\c2ccc(OC(C)C)c(Cl)c2)n(Cc2ccc(C)cc2)c1=O [Compound I-0928],14 nM
3,Cc1ccc(Cn2c(=O)n(C[C@H](C)C(=O)O)c(=O)[nH]/c2=N\c2ccc(N3CCCC3)cc2)cc1 [Compound I-1091],179 nM
4,O=c1[nH]/c(=N\c2ccc(Oc3cncc(F)c3)cc2)n(Cc2ccc(Cl)cc2)c(=O)n1CCCO [Compound I-1596],4 nM
5,CCOC(=O)CCn1c(=O)[nH]/c(=N\c2ccc(OCC3CC3)cc2)n(Cc2ccc(C)cc2)c1=O [Compound I-1146],9 nM
6,Cc1ccc(Cn2c(=O)n(C[C@H](C)C(=O)O)c(=O)[nH]/c2=N\c2ccc(CC(C)C)c(C)c2)cc1 [Compound I-1044],19 nM
7,Cc1ccc(Cn2c(=O)n(C[C@H](C)C(=O)O)c(=O)[nH]/c2=N\c2ccc(Oc3cccnc3)cc2)cc1 [Compound I-1123],14 nM
8,O=C(O)c1cc(Oc2ccc(/N=c3\[nH]c(=O)[nH]c(=O)n3Cc3ccc(Cl)cc3)cc2)ccn1 [Compound I-1883],7 nM
9,C[C@@H](C(=O)O)[C@H](C)n1c(=O)[nH]/c(=N\c2ccc3cc(Br)ccc3c2)n(Cc2ccc(Cl)cc2)c1=O [Compound I-1832],32 nM
10,Cc1cc(/N=c2\[nH]c(=O)n(CC3(CO)COC3)c(=O)n2Cc2ccc(Cl)cc2)ccc1OC(C)C [Compound I-0906],8 nM
11,CCc1nc2ccc(/N=c3\[nH]c(=O)n(CCC#N)c(=O)n3Cc3ccc(Cl)cc3)cc2s1 [Compound I-1769],3 nM
12,CCCOc1ccc(/N=c2\[nH]c(=O)n(CC3(C(=O)O)CC3)c(=O)n2Cc2ccc(Cl)cc2)cc1Cl [Compound I-0986],31 nM
13,CCc1oc2ccc(/N=c3\[nH]c(=O)n(CCO)c(=O)n3Cc3ccc(Cl)cc3)cc2c1C [Compound I-1633],16 nM
14,O=C(O)CCn1c(=O)[nH]/c(=N\c2cccc(S(F)(F)(F)(F)F)c2)n(Cc2ccc(Cl)cc2)c1=O [Compound I-1651],54 nM
15,CC1CCC(Cn2c(=O)n(CCC(=O)O)c(=O)[nH]/c2=N\c2ccc(OC(C)C)c(F)c2)CC1 (centres unmarked) [Compound I-1750],21 nM
16,CCOc1ccc(/N=c2\[nH]c(=O)n(C[C@H](O)CO)c(=O)n2Cc2ccc(Cl)cc2)cc1Cl [Compound I-1907],8 nM
17,CCc1nc2ccc(/N=c3\[nH]c(=O)n(C[C@H](C)NC(C)=O)c(=O)n3Cc3ccc(Cl)cc3)cc2s1 [Compound I-1665],7 nM

# Same assay, conditions: human P2X3 receptor, Test Example 1
row,Compound,IC50
1,CCCOc1ccc(/N=c2\[nH]c(=O)n(CCCC(=O)O)c(=O)n2Cc2ccc(C)cc2)cc1Cl [Compound I-0873],47 nM
2,CCOC(=O)Cn1c(=O)[nH]/c(=N\c2ccc(Oc3ccnnc3)cc2)n(Cc2ccc(Cl)cc2)c1=O [Compound I-2664],3 nM
3,CCn1c(=O)[nH]/c(=N\c2ccc(Oc3cccc(C#N)n3)c(F)c2)n(Cc2ccc(Cl)cc2)c1=O [Compound I-2492],4 nM
4,CNC(=O)Cn1c(=O)[nH]/c(=N\c2ccc(Oc3ccnnc3)cc2)n(Cc2ccc(Cl)cc2)c1=O [Compound I-2696],8 nM
5,CCn1c(=O)[nH]/c(=N\c2ccc(Oc3ccsn3)cc2)n(Cc2ccc(Cl)cc2)c1=O [Compound I-2286],5 nM
6,Cc1nsc(Oc2ccc(/N=c3\[nH]c(=O)n(CCC(=O)O)c(=O)n3Cc3ccc(Cl)cc3)cc2)n1 [Compound I-2697],19 nM
7,C[C@H](C(N)=O)n1c(=O)[nH]/c(=N\c2ccc(Oc3ccon3)cc2)n(Cc2ccc(Cl)cc2)c1=O [Compound I-2500],67 nM
8,Cc1cc(/N=c2\[nH]c(=O)n(C[C@H](C)C(=O)O)c(=O)n2Cc2ccc(Br)cc2)ccc1OC(C)C [Compound I-0868],23 nM
9,CCn1c(=O)[nH]/c(=N\c2ccc(Oc3ccc(C(=O)O)nc3)cc2)n(C[C@H]2CC[C@H](C)CC2)c1=O [Compound I-2351],9 nM
10,CCn1c(=O)[nH]/c(=N\c2ccc(Oc3ccc(C(N)=O)c(F)c3)cc2)n(Cc2ccc(Cl)cc2)c1=O [Compound I-2234],2 nM
11,CCn1c(=O)[nH]/c(=N\c2ccc(Oc3ncccc3C#N)cc2)n(Cc2ccc(Cl)cc2)c1=O [Compound I-2345],20 nM
12,CCn1c(=O)[nH]/c(=N\[C@H]2CC[C@H](Oc3ccnc(C(=O)NC)c3)CC2)n(Cc2ccc(Cl)cc2)c1=O [Compound I-2246],790 nM
13,Cc1ccc(Cn2c(=O)n(C[C@H](C)C(=O)O)c(=O)[nH]/c2=N\c2cc(Cl)cc(Cl)c2)cc1 [Compound I-1500],897 nM
14,Cc1cc(Oc2ccc(/N=c3\[nH]c(=O)n(C[C@@H](O)CO)c(=O)n3Cc3ccc(Cl)cc3)cc2)no1 [Compound I-2229],23 nM
15,Cn1c(=O)[nH]/c(=N\c2ccc(Oc3ccnc(C(N)=O)c3)cc2)n(Cc2ccc(Cl)cc2)c1=O [Compound I-2378],6 nM
16,O=c1[nH]/c(=N\c2ccc(Oc3ccon3)cc2)n(Cc2ccc(Cl)cc2)c(=O)n1CC(O)CO (centres unmarked) [Compound I-2370],11 nM
17,CCn1c(=O)[nH]/c(=N\c2ccc(Oc3cccc(C(=O)O)c3)cc2)n(C[C@H]2CC[C@H](C)CC2)c1=O [Compound I-2354],3 nM
18,CCCOc1ccc(/N=c2\[nH]c(=O)n(C[C@H](CC)C(=O)O)c(=O)n2Cc2ccc(Cl)cc2)cc1 [Compound I-0890],32 nM
19,CCOC(=O)Cn1c(=O)[nH]/c(=N\c2ccc(Oc3ccon3)cc2)n(Cc2ccc(Cl)cc2)c1=O [Compound I-2627],7 nM
